The structures appear in SMILES notation.

full-length human recombinant BTK, sequence (Q06187 whole entry): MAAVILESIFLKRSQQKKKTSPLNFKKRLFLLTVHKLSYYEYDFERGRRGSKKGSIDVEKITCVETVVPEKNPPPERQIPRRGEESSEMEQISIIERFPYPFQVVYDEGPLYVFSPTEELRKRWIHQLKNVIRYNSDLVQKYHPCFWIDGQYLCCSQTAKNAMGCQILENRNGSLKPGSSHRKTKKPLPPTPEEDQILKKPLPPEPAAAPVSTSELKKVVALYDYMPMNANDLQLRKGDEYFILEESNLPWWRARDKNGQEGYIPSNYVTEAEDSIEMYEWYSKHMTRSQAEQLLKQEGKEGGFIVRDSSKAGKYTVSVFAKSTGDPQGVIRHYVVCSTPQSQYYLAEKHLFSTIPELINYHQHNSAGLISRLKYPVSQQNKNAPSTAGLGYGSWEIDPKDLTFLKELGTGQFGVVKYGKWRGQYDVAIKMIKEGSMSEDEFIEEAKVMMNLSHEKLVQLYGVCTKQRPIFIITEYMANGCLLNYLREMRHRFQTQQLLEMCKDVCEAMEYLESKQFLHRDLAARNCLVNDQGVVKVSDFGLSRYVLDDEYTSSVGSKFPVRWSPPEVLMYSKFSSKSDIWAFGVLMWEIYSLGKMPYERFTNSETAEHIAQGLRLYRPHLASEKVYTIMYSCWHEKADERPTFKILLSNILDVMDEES

The target of this assay is full-length human recombinant BTK (Homo sapiens (Human), UniProt Q06187). Nature of the assay: Inhibition of Btk enzymatic activity (biochemical enzyme assay, Caliper). As to conditions: 30° C., 60 minutes. As to the method:
The inhibitory activity of the present compounds against Btk was assessed in a biochemical enzyme assay. Assay plates in 384 well format were prepared with 8-point serial dilutions for the test compounds on a Thermo CatX workstation equipped with a Innovadyne Nanodrop Express. The assay plates were prepared by addition of 50 nl per well of compound solution in 90% DMSO. The kinase reactions were started by stepwise addition of 4.5 μl per well of peptide/ATP-solution (4 μM FITC-Ahx-[…]-NH2, 164 μM ATP) in kinase buffer (50 mM HEPES, pH 7.5, 1 mM DTT, 0.02% Tween20, 0.02% BSA, 0.6% DMSO, 10 mM beta-glycerophosphate, and 10 μM sodium orthovanadate, 18 mM MgCl2, 1 mM MnCl2) and 4.5 μl per well of enzyme solution (6.4 nM full-length human recombinant BTK) in kinase buffer. Kinase reactions were incubated at 30° C. for 60 minutes and subsequently terminated by addition of 16 μl per well of stop solution (100 mM HEPES pH 7.5, 5% DMSO, 0.1% Caliper coating reagent, 10 mM EDTA, and 0.015% Brij35). Kinase reactions were analyzed on a Caliper LC3000 workstation by separating phosphorylated and unphosphorylated peptides and kinase activities were calculated from the amounts of newly formed phospho-peptide. Inhibition data were calculated by comparison to control reactions without enzyme (100% inhibition) and without inhibitors (0% inhibition). The concentration of inhibitor required for 50% inhibition (IC50) was calculated from the inhibition in response to inhibitor concentrations.
On to `Cc1c(NC(=O)c2ccc(C(C)(C)C)cc2)cc(F)cc1-c1ncnc2[nH]c(C3=CC[S+]([O-])CC3)cc12` (centres unmarked) [Example 25, 4-tert-Butyl-N-{5-fluoro-2-methyl-3-[6-(3,6-dihydro-1-oxido-2H-thiopyran-4-yl)-7H-pyrrolo[2,3-d]pyrimidin-4-yl]-phenyl}-benzamide], for which the IC50 was 2 nM.
As to `Cc1c(NC(=O)c2ccc(C(C)(C)C)cc2)cccc1-c1ncnc2[nH]c(C3=CCSCC3)cc12` [Example 51, 4-tert-Butyl-N-{3-[6-(3,6-dihydro-2H-thiopyran-4-yl)-7H-pyrrolo[2,3-d]pyrimidin-4-yl]-2-methyl-phenyl}-benzamide], the IC50 was found to be 47 nM.
On to `CC(C)(O)c1ccc(C(=O)Nc2cccc(-c3ncnc4[nH]c(C5=CCOCC5)cc34)c2CO)c(F)c1` [Example 23, N-{3-[6-(3,6-Dihydro-2H-pyran-4-yl)-7H-pyrrolo[2,3-d]pyrimidin-4-yl]-2-hydroxymethyl-phenyl}-2-fluoro-4-(1-hydroxy-1-methyl-ethyl)-benzamide], for which the IC50 turned out to be 12 nM.
With `Cc1c(NC(=O)c2ccc(C(C)(C)C)cc2)cc(F)cc1-c1ncnc2[nH]c(C3=CCC(O)CC3)cc12` (centres unmarked) [Example 28, 4-tert-Butyl-N-{5-fluoro-3-[6-(4-hydroxy-cyclohex-1-enyl)-7H-pyrrolo[2,3-d]pyrimidin-4-yl]-2-methyl-phenyl}-benzamide], the IC50 stood at 46 nM.
For `CN(C)C(=O)N1CC=C(c2cc3c(-c4ccc(F)c(NC(=O)c5ccc(C(C)(C)CO)cc5)c4)ncnc3[nH]2)CC1` [Example 21, 4-(4-{4-Fluoro-3-[4-(2-hydroxy-1,1-dimethyl-ethyl)-benzoylamino]-phenyl}-7H-pyrrolo[2,3-d]pyrimidin-6-yl)-3,6-dihydro-2H-pyridine-1-carboxylic acid dimethylamide] the value was 6 nM; for `CC(=O)c1ccc(C(=O)Nc2cc(F)cc(-c3ncnc4[nH]c(C5=CCN(C(=O)N(C)C)CC5)cc34)c2C)cc1` [Example 19, 4-{4-[3-(4-Acetyl-benzoylamino)-5-fluoro-2-methyl-phenyl]-7H-pyrrolo[2,3-d]pyrimidin-6-yl}-3,6-dihydro-2H-pyridine-1-carboxylic acid dimethylamide], 23 nM; for `Cc1c(NC(=O)c2ccc(C(C)(C)O)cc2F)cc(F)cc1-c1ncnc2[nH]c(C3=CCOCC3)cc12` [Example 22, N-{3-[6-(3,6-Dihydro-2H-pyran-4-yl)-7H-pyrrolo[2,3-d]pyrimidin-4-yl]-5-fluoro-2-methyl-phenyl}-2-fluoro-4-(1-hydroxy-1-methyl-ethyl)-benzamide], 8 nM.
Next, `Cc1c(NC(=O)c2ccc(C(C)(C)C)cc2)cc(F)cc1-c1ncnc2[nH]c(C3=CCN(S(=O)(=O)N(C)C)CC3)cc12` [Example 43, 4-tert-Butyl-N-{3-[6 (1 dimethylsulfamoyl-1,2,3,6-tetrahydro-pyridin-4-yl)-7H-pyrrolo[2,3-d]pyrimidin-4-yl]-5-fluoro-2-methyl-phenyl}-benzamide]: 140 nM; `CN(C)C(=O)N1CC=C(c2cc3c(-c4ccc(F)c(NC(=O)c5ccc(C6CC6)cc5)c4)ncnc3[nH]2)CC1` [Example 20, 4-{4-[3-(4-Cyclopropyl-benzoylamino)-4-fluoro-phenyl]-7H-pyrrolo[2,3-d]pyrimidin-6-yl}-3,6-dihydro-2H-pyridine-1-carboxylic acid dimethylamide]: 6 nM; `CC(=O)OCC(=O)N1CC=C(c2cc3c(-c4cc(F)cc(NC(=O)c5ccc(C6CC6)cc5)c4C)ncnc3[nH]2)CC1` [Example 31, Acetic acid 2-(4-{4-[3-(4 cyclopropyl-benzoylamino)-5-fluoro-2-methyl-phenyl]-7H-pyrrolo[2,3-d]pyrimidin-6-yl}-3,6-dihydro-2H-pyridin-1-yl)-2-oxo-ethyl ester]: 3 nM.
Next, `Cc1c(NC(=O)c2ccc(S(F)(F)(F)(F)F)cc2)cc(F)cc1-c1ncnc2[nH]c(C3=CCN(C(=O)N(C)C)CC3)cc12` [Example 11, 4-(4-{5-Fluoro-3-[4-pentafluorothio-benzoylamino]-2-methyl-phenyl}-7H-pyrrolo[2,3-d]pyrimidin-6-yl)-3,6-dihydro-2H-pyridine-1-carboxylic acid dimethylamide]: 5 nM; `CC(C)(C)c1ccc(C(=O)Nc2cccc(-c3ncnc4[nH]c(C5=CCOCC5)cc34)c2CO)cc1` [Example 48, 4-tert-Butyl-N-{3-[6-(3,6-dihydro-2H-pyran-4-yl)-7H-pyrrolo[2,3-d]pyrimidin-4-yl]-2-hydroxymethyl-phenyl}-benzamide]: 7 nM; `CC(=O)OCC(=O)N1CC=C(c2cc3c(-c4cc(F)cc(NC(=O)c5ccc(S(F)(F)(F)(F)F)cc5)c4C)ncnc3[nH]2)CC1` [Example 35, Acetic acid 2-[4-(4-{5-fluoro-2-methyl-3-[4-(pentafluoro-sulfanyl)-benzoylamino]-phenyl}-7H-pyrrolo[2,3-d]pyrimidin-6-yl)-3,6-dihydro-2H-pyridin-1-yl]-2-oxo-ethyl ester]: 14 nM.
As for `Cc1c(NC(=O)N2Cc3ccc(F)cc3C2)cc(F)cc1-c1ncnc2[nH]c(C3=CCN(C(=O)N(C)C)CC3)cc12` [Example 59, 5-Fluoro-1,3-dihydro-isoindole-2-carboxylic acid {3-[6-(1-dimethylcarbamoyl-1,2,3,6-tetrahydro-pyridin-4-yl)-7H-pyrrolo[2,3-d]pyrimidin-4-yl]-5-fluoro-2-methyl-phenyl}-amide], the IC50 was 3 nM.
`Cc1c(NC(=O)c2ccc(C(C)(C)C)cc2)cccc1-c1ncnc2[nH]c(C3=CCC(N(C)C)CC3)cc12` (centres unmarked) [Example 67, 4-tert-Butyl-N-{3-[6 (4 dimethylamino-cyclohex-1-enyl)-7H-pyrrolo[2,3-d]pyrimidin-4-yl]-2-methyl-phenyl}-benzamide]: the half-maximal inhibitory concentration (IC50) is 8 nM.
Next, `Cc1c(NC(=O)c2ccc(C(C)(C)C)cc2)cc(F)cc1-c1ncnc2[nH]c(C3=CCOCC3)cc12` [Example 49, 4-tert-Butyl-N-{3-[6-(3,6-dihydro-2H-pyran-4-yl)-7H-pyrrolo[2,3-d]pyrimidin-4-yl]-5-fluoro-2-methyl-phenyl}-benzamide]: 99 nM; `Cc1c(NC(=O)c2ccc(C(C)(C)C)cc2)cccc1-c1ncnc2[nH]c(C3=CCN(S(C)(=O)=O)CC3)cc12` [Example 44, 4-tert-Butyl-N-{3-[6-(1 methanesulfonyl-1,2,3,6-tetrahydro-pyridin-4-yl)-7H-pyrrolo[2,3-d]pyrimidin-4-yl]-2-methyl-phenyl}-benzamide]: 17 nM; `Cc1c(NC(=O)N2CC(OC(C)(C)C)C2)cc(F)cc1-c1ncnc2[nH]c(C3=CCOCC3)cc12` [Example 61, 3-tert-Butoxy-azetidine-1-carboxylic acid {3-[6-(3,6-dihydro-2H-pyran-4-yl)-7H-pyrrolo[2,3-d]pyrimidin-4-yl]-5-fluoro-2-methyl-phenyl}-amide]: 6 nM.
Next, `COC(C)(C)c1ccc(C(=O)Nc2cc(F)cc(-c3ncnc4[nH]c(C5=CCN(C(=O)N(C)C)CC5)cc34)c2C)cc1` [Example 13, 4-(4-{5-Fluoro-3-[4-(1-methoxy-1-methyl-ethyl)-benzoylamino]-2-methyl-phenyl}-7H-pyrrolo[2,3-d]pyrimidin-6-yl)-3,6-dihydro-2H-pyridine-1-carboxylic acid dimethylamide]: 4 nM; `COCC(C)(C)c1ccc(C(=O)Nc2cc(F)cc(-c3ncnc4[nH]c(C5=CCN(C(=O)N(C)C)CC5)cc34)c2C)cc1` [Example 12, 4-(4-{5-Fluoro-3-[4-(2-methoxy-1,1-dimethyl-ethyl)-benzoylamino]-2-methyl-phenyl}-7H-pyrrolo[2,3-d]pyrimidin-6-yl)-3,6-dihydro-2H-pyridine-1-carboxylic acid dimethylamide]: 4 nM; `Cc1c(NC(=O)c2ccc(OC(C)C)cc2)cc(F)cc1-c1ncnc2[nH]c(C3=CCN(C(=O)N(C)C)CC3)cc12` [Example 10, 4-{4-[5-Fluoro-3-(4-isopropoxy-benzoylamino)-2-methyl-phenyl]-7H-pyrrolo[2,3-d]pyrimidin-6-yl}-3,6-dihydro-2H-pyridine-1-carboxylic acid dimethylamide]: 15 nM.
Next, `CN(C)C(=O)N1CC=C(c2cc3c(-c4cccc(N5CCc6cc(C7CC7)ccc6C5=O)c4CO)ncnc3[nH]2)CC1` [Example 46, 4-{4-[3-(6-Cyclopropyl-1-oxo-3,4-dihydro-1H-isoquinolin-2-yl)-2-hydroxymethyl-phenyl]-7H-pyrrolo[2,3-d]pyrimidin-6-yl}-3,6-dihydro-2H-pyridine-1-carboxylic acid dimethylamide]: 17 nM.
`Cc1c(NC(=O)c2ccc3ccn(C)c3n2)cc(F)cc1-c1ncnc2[nH]c(C3=CCN(C(=O)N(C)C)CC3)cc12` [Example 14, 1-Methyl-1H-pyrrolo[2,3-b]pyridine-6-carboxylic acid {3-[6-(1-dimethyl-carbamoyl-1,2,3,6-tetrahydro-pyridin-4-yl)-7H-pyrrolo[2,3-d]pyrimidin-4-yl]-5-fluoro-2-methyl-phenyl}-amide]: the IC50 is 16 nM.

A word on the IC50: it is the concentration that inhibits the measured activity by half.

These data come from patent US9233111B2, “Pyrrolo pyrimidine derivatives” (NOVARTIS AG, priority 2011, dated 2016).
